Reference: US6608082B1, “Treatment of erectile dysfunction using isoquinoline compound melanocortin receptor ligands” (Lion Bioscience AG, priority 1998, dated 2003)
Read-outs that look alike come from different tables or passages of the source.

Experiments:
MCR-4 = target: T1, MCR-4 (Homo sapiens, UniProt P32245); assay: Melanocortin receptor binding assay, competition with 125I-HP 467, HEK 293 cells expressing hMCR-4; details: read-out: MC-4 IC50
T1 construct: expressed in transfected cells; host or cells: HEK 293
T1 sequence (P32245 whole entry): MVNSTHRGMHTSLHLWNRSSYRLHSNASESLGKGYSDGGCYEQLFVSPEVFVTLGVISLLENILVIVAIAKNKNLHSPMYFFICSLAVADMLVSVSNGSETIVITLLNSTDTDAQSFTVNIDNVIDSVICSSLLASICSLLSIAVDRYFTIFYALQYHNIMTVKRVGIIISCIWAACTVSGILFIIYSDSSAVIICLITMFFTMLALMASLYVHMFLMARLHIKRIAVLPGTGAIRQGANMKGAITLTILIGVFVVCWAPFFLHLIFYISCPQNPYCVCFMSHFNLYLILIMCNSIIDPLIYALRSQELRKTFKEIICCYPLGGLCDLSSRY
Outline: (§1)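 Intact-cell competition binding, 2.5 hr at 37 °C, in PBS/10% calf serum/1 mM CaCl2; hMCR-4 cells at 4×10^3 per tube, hMCR-1 cells at 2×10^4 per tube. Filtration on BSA/CaCl2-soaked GF/B, cold 50 mM Tris pH 7.4 washes, scintillation count.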

MCR-1 = target: T2, MCR-1 (Homo sapiens, UniProt Q01726); assay: Melanocortin receptor binding assay, competition with 125I-HP 467, HEK 293 cells expressing hMCR-1; details: for IC50: read-out: MC-1 IC50; for effectiveness as MC receptor ligand: binding to MC receptors, Table 1
T2 construct: expressed in transfected cells; host or cells: HEK 293
T2 sequence (Q01726 whole entry): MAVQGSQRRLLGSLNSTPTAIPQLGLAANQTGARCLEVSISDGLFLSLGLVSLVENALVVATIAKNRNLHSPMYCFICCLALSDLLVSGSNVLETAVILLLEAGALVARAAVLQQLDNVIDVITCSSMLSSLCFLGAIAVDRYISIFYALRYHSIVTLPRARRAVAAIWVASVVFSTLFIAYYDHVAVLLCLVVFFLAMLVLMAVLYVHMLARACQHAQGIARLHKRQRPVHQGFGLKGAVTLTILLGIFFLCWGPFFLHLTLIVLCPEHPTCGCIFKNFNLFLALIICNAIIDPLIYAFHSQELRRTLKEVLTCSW
Outline: as §1

[1] = competition with 125I-HP 467, HEK 293 cells expressing MCR-4
[2] = competition with 125I-HP 467, HEK 293 cells expressing MCR-1
[3] = inhibition of binding of 125I-HP 467, HEK 293 cells expressing MCR-4
[4] = inhibition of binding of 125I-HP 467, HEK 293 cells expressing MCR-1

Compound	IC50 (MCR-4; [1])	IC50 (MCR-1; [2])	effectiveness as MC receptor ligand (MCR-1)	IC50 (MCR-4; [3])	IC50 (MCR-1; [4])
CCCCNc1ccc(C2C(CN)c3ccccc3CN2CCCC(CN)NCc2ccccc2)cc1 (centres unmarked) [TRG 2409-224]	1.32 µM	0.12 µM	–	–	–
CCCCNc1ccc(C2C(CN)c3ccccc3CN2CCCC(CN)NCc2ccc(Cl)cc2)cc1 (centres unmarked) [TRG 2409-225]	1.12 µM	0.12 µM	–	–	–
NCC(N)CCCCN1Cc2ccccc2C(CNCCc2ccccc2)C1c1ccc(-c2ccccc2)cc1 (centres unmarked) [TRG 2411-1]	1.22 µM	0.6 µM	–	–	–
NCC(CCCCN1Cc2ccccc2C(CNCCc2ccccc2)C1c1ccc(-c2ccccc2)cc1)N1CCCC1 (centres unmarked) [TRG 2411-9]	1.27 µM	0.13 µM	–	–	–
CCCCNC(CN)CCCCN1Cc2ccccc2C(CNCCc2ccccc2)C1c1ccc(-c2ccccc2)cc1 (centres unmarked) [TRG 2411-11]	1.8 µM	0.83 µM	–	–	–
CCCCNC(CN)CCCCN1Cc2ccccc2C(CNC2CCCCC2)C1c1ccc(-c2ccccc2)cc1 (centres unmarked) [TRG 2411-20]	0.77 µM	0.61 µM	–	–	–
NCC(CCCCN1Cc2ccccc2C(CNC2CCCCC2)C1c1ccc(-c2ccccc2)cc1)NCC1CCCCC1 (centres unmarked) [TRG 2411-21]	1.01 µM	0.27 µM	–	–	–
NCC(CCCCN1Cc2ccccc2C(CNC2CCCCC2)C1c1ccc(-c2ccccc2)cc1)NCc1ccccc1 (centres unmarked) [TRG 2411-22]	1.73 µM	0.42 µM	–	–	–
CNCCNC(CN)CCCCN1Cc2ccccc2C(CN)C1c1ccc(-c2ccccc2)cc1 (centres unmarked) [TRG 2411-26]	6.17 µM	0.09 µM	particularly effective MC receptor ligands	–	–
NCC(CCCCN1Cc2ccccc2C(CN)C1c1ccc(-c2ccccc2)cc1)NCCO (centres unmarked) [TRG 2411-29]	1.42 µM	0.3 µM	–	–	–
CNC(CNC(CN)CCCCN1Cc2ccccc2C(CN)C1c1ccc(-c2ccccc2)cc1)Cc1ccccc1 (centres unmarked) [TRG 2411-30]	1.33 µM	0.3 µM	–	–	–
CCCCNC(CN)CCCCN1Cc2ccccc2C(CN)C1c1ccc(-c2ccccc2)cc1 (centres unmarked) [TRG 2411-33]	1.73 µM	0.39 µM	–	–	–
CCCCNC(CN)CCCCN1Cc2ccccc2C(CNCCc2ccccc2)C1c1ccc(NCC)cc1 (centres unmarked) [TRG 2411-38]	1.33 µM	0.09 µM	–	–	–
CCNc1ccc(C2C(CNCCc3ccccc3)c3ccccc3CN2CCCCC(CN)NCCc2ccccc2)cc1 (centres unmarked) [TRG 2411-40]	1 µM	0.19 µM	–	–	–
CCNc1ccc(C2C(CNCCc3ccccc3)c3ccccc3CN2CCCC[C@@H](CN)NCCc2ccc(OC)cc2)cc1 (some centres unmarked) [TRG 2411-42]	1.56 µM	0.32 µM	–	–	–
CCNc1ccc(C2C(CNCCc3ccccc3)c3ccccc3CN2CCCCC(CN)NCc2ccccc2)cc1 (centres unmarked) [TRG 2411-43]	1.03 µM	0.19 µM	–	–	–
CCNc1ccc(C2C(CNCCc3ccccc3)c3ccccc3CN2CCCCC(CN)NCc2ccc(OC)cc2)cc1 (centres unmarked) [TRG 2411-45]	0.84 µM	0.12 µM	–	–	–
CCNc1ccc(C2C(CNCCc3ccccc3)c3ccccc3CN2CCCCC(CN)NCCc2ccc3ccccc3c2)cc1 (centres unmarked) [TRG 2411-46]	1.33 µM	0.89 µM	–	–	–
CCNc1ccc(C2C(CNC3CCCCC3)c3ccccc3CN2CCCCC(CN)NCCc2ccc(Br)cc2)cc1 (centres unmarked) [TRG 2411-52]	0.86 µM	0.55 µM	–	–	–
CCNc1ccc(C2C(CNC3CCCCC3)c3ccccc3CN2CCCCC(CN)NCCc2ccc(OC)cc2)cc1 (centres unmarked) [TRG 2411-53]	1.65 µM	0.28 µM	–	–	–

Compound	IC50 (MCR-4; [1])	IC50 (MCR-1; [2])	effectiveness as MC receptor ligand (MCR-1)	IC50 (MCR-4; [3])	IC50 (MCR-1; [4])
CCNc1ccc(C2C(CNC3CCCCC3)c3ccccc3CN2CCCCC(CN)NCc2ccccc2)cc1 (centres unmarked) [TRG 2411-54]	1.79 µM	0.13 µM	–	–	–
CCNc1ccc(C2C(CNC3CCCCC3)c3ccccc3CN2CCCCC(CN)NCc2ccc(Cl)cc2)cc1 (centres unmarked) [TRG 2411-55]	2.05 µM	0.09 µM	–	–	–
CCNc1ccc(C2C(CNC3CCCCC3)c3ccccc3CN2CCCCC(CN)NCCc2ccc3ccccc3c2)cc1 (centres unmarked) [TRG 2411-57]	1.19 µM	0.92 µM	–	–	–
CCNc1ccc(C2C(CNC3CCCCC3)c3ccccc3CN2CCCC[C@@H](CN)NCCC2CCCCC2)cc1 (some centres unmarked) [TRG 2411-58]	1.11 µM	0.22 µM	–	–	–
CCNc1ccc(C2C(CN)c3ccccc3CN2CCCCC(CN)NCCc2ccccc2)cc1 (centres unmarked) [TRG 2411-63]	1.82 µM	0.24 µM	–	–	–
CCCCNc1ccc(C2C(CNCCc3ccccc3)c3ccccc3CN2CCCCC(CN)NCC)cc1 (centres unmarked) [TRG 2411-74]	2.24 µM	0.11 µM	–	–	–
CCCCNc1ccc(C2C(CNCCc3ccccc3)c3ccccc3CN2CCCCC(CN)NCCCC)cc1 (centres unmarked) [TRG 2411-75]	1.05 µM	0.13 µM	–	–	–
CCCCNc1ccc(C2C(CNCCc3ccccc3)c3ccccc3CN2CCCCC(CN)NCCc2ccccc2)cc1 (centres unmarked) [TRG 2411-77]	1.49 µM	0.22 µM	–	–	–
CCCCNc1ccc(C2C(CNCCc3ccccc3)c3ccccc3CN2CCCCC(CN)NCCc2ccc(Br)cc2)cc1 (centres unmarked) [TRG 2411-78]	1.32 µM	0.45 µM	–	–	–
CCCCNc1ccc(C2C(CNCCc3ccccc3)c3ccccc3CN2CCCCC(CN)NCc2ccccc2)cc1 (centres unmarked) [TRG 2411-80]	1.83 µM	0.17 µM	–	–	–
CCCCNc1ccc(C2C(CNCCc3ccccc3)c3ccccc3CN2CCCCC(CN)NCc2ccc(Cl)cc2)cc1 (centres unmarked) [TRG 2411-81]	1.38 µM	0.18 µM	–	–	–
CCCCNc1ccc(C2C(CNCCc3ccccc3)c3ccccc3CN2CCCCC(CN)NCc2ccc(OC)cc2)cc1 (centres unmarked) [TRG 2411-82]	1.46 µM	0.29 µM	–	–	–
CCCCNc1ccc(C2C(CNCCc3ccccc3)c3ccccc3CN2CCCCC(CN)NCCc2ccc3ccccc3c2)cc1 (centres unmarked) [TRG 2411-83]	1.06 µM	0.57 µM	–	–	–
CCCCNc1ccc(C2C(CNCCc3ccccc3)c3ccccc3CN2CCCCC(CN)NCCC2CCCCC2)cc1 (centres unmarked) [TRG 2411-84]	0.76 µM	0.22 µM	–	–	–
CCCCNc1ccc(C2C(CNC3CCCCC3)c3ccccc3CN2CCCCC(CN)NCCCC)cc1 (centres unmarked) [TRG 2411-88]	1.5 µM	0.24 µM	–	–	–
CCCCNc1ccc(C2C(CNC3CCCCC3)c3ccccc3CN2CCCCC(CN)NCCc2ccccc2)cc1 (centres unmarked) [TRG 2411-90]	1.17 µM	0.25 µM	–	–	–
CCCCNc1ccc(C2C(CNC3CCCCC3)c3ccccc3CN2CCCCC(CN)NCc2ccc(Cl)cc2)cc1 (centres unmarked) [TRG 2411-94]	1.71 µM	0.09 µM	–	–	–
CCCCNc1ccc(C2C(CNC3CCCCC3)c3ccccc3CN2CCCCC(CN)NCc2ccc(OC)cc2)cc1 (centres unmarked) [TRG 2411-95]	1.03 µM	0.11 µM	–	–	–
CCCCNc1ccc(C2C(CNC3CCCCC3)c3ccccc3CN2CCCCC(CN)NCCc2ccc3ccccc3c2)cc1 (centres unmarked) [TRG 2411-96]	1.65 µM	0.6 µM	–	–	–
CCCCNc1ccc(C2C(CN)c3ccccc3CN2CCCCC(CN)NCCCC)cc1 (centres unmarked) [TRG 2411-102]	1.17 µM	0.09 µM	–	–	–

Compound	IC50 (MCR-4; [1])	IC50 (MCR-1; [2])	effectiveness as MC receptor ligand (MCR-1)	IC50 (MCR-4; [3])	IC50 (MCR-1; [4])
CCCCNc1ccc(C2C(CN)c3ccccc3CN2CCCCC(CN)NCCc2ccccc2)cc1 (centres unmarked) [TRG 2411-104]	0.59 µM	0.16 µM	–	–	–
CCCCNc1ccc(C2C(CN)c3ccccc3CN2CCCCC(CN)NCCc2ccc(Br)cc2)cc1 (centres unmarked) [TRG 2411-105]	0.91 µM	0.21 µM	–	–	–
CCCCNc1ccc(C2C(CN)c3ccccc3CN2CCCCC(CN)NCc2ccc(OC)cc2)cc1 (centres unmarked) [TRG 2411-109]	1.4 µM	0.1 µM	–	–	–
CCCCNc1ccc(C2C(CN)c3ccccc3CN2CCCCC(CN)NCCc2ccc3ccccc3c2)cc1 (centres unmarked) [TRG 2411-110]	1.05 µM	0.1 µM	–	–	–
CCCCNc1ccc(C2C(CN)c3ccccc3CN2CCCCC(CN)NCCC2CCCCC2)cc1 (centres unmarked) [TRG 2411-111]	1.47 µM	0.04 µM	particularly effective MC receptor ligands	–	–
CCCCNc1ccc(C2C(CN)c3ccccc3CN2CCCCC(CN)NCCN)cc1 (centres unmarked) [TRG 2411-112]	1.45 µM	0.2 µM	–	–	–
CCNC(CN)CCCN1Cc2ccccc2C(CNCCc2ccccc2)C1c1ccc(-c2ccccc2)cc1 (centres unmarked) [TRG 2411-115]	1.43 µM	0.82 µM	–	–	–
NCC(CCCN1Cc2ccccc2C(CNCCc2ccccc2)C1c1ccc(-c2ccccc2)cc1)NCCc1ccccc1 (centres unmarked) [TRG 2411-116]	1.98 µM	1.24 µM	–	–	–
NCC(CCCN1Cc2ccccc2C(CNCCc2ccccc2)C1c1ccc(-c2ccccc2)cc1)NCc1ccccc1 (centres unmarked) [TRG 2411-126]	1.49 µM	1.32 µM	–	–	–
CCCCNC(CN)CCCN1Cc2ccccc2C(CNC2CCCCC2)C1c1ccc(-c2ccccc2)cc1 (centres unmarked) [TRG 2411-133]	1.59 µM	1.46 µM	–	–	–
COCCNC(CN)CCCN1Cc2ccccc2C(CN)C1c1ccc(-c2ccccc2)cc1 (centres unmarked) [TRG 2411-146]	1.46 µM	1.22 µM	–	–	–
CCCCNC(CN)CCCN1Cc2ccccc2C(CN)C1c1ccc(-c2ccccc2)cc1 (centres unmarked) [TRG 2411-147]	1.19 µM	1.26 µM	–	–	–
NCC(CCCN1Cc2ccccc2C(CN)C1c1ccc(-c2ccccc2)cc1)NCC1CCCCC1 (centres unmarked) [TRG 2411-148]	1.96 µM	0.96 µM	–	–	–
NCC(CCCN1Cc2ccccc2C(CN)C1c1ccc(-c2ccccc2)cc1)NCc1ccccc1 (centres unmarked) [TRG 2411-149]	0.49 µM	1.17 µM	–	–	–
CCNc1ccc(C2C(CNCCc3ccccc3)c3ccccc3CN2CCCC(N)CN)cc1 (centres unmarked) [TRG 2411-150]	–	–	–	4.54 µM	0.12 µM
CCNc1ccc(C2C(CNCCc3ccccc3)c3ccccc3CN2CCCC(CN)NC)cc1 (centres unmarked) [TRG 2411-151]	–	–	–	1.78 µM	0.09 µM
CCNc1ccc(C2C(CNCCc3ccccc3)c3ccccc3CN2CCCC(CN)NCC)cc1 (centres unmarked) [TRG 2411-152]	–	–	–	0.52 µM	0.06 µM
CCCCNC(CN)CCCN1Cc2ccccc2C(CNCCc2ccccc2)C1c1ccc(NCC)cc1 (centres unmarked) [TRG 2411-153]	–	–	–	0.59 µM	0.08 µM
CCNc1ccc(C2C(CNCCc3ccccc3)c3ccccc3CN2CCCC(CN)NCCc2ccccc2)cc1 (centres unmarked) [TRG 2411-155]	–	–	–	0.72 µM	0.09 µM
CCNc1ccc(C2C(CNCCc3ccccc3)c3ccccc3CN2CCCC(CN)NCCc2ccc(Br)cc2)cc1 (centres unmarked) [TRG 2411-156]	–	–	–	0.66 µM	0.12 µM
